Strand notation (5' to 3'): a small letter for the sugar, then the base; units joined by * are phosphorothioate-linked, units joined directly phosphodiester-linked; [ ] holds rarer units or linkages, { } end groups; capitals alone tell only the bases. [PN] = cyclic guanidine phosphoramidate internucleoside linkage; [ms] = mesyl phosphoramidate linkage; e = 2'-O-(2-methoxyethyl) (MOE); k = constrained ethyl (cEt); [5mC] = 5-methylcytosine; d = 2'-deoxy (DNA)
Key:
human APOE RNA [1] = assay: Duration of action study in APOE C57BL/6NTac-Apoeem7250 knock-in mice (Example 16); type: in vivo; conditions: 300 μg ICV
Experimental: Modified oligonucleotides described above were tested in the APOE C57BL/6NTac-Apoeem7250 knock-in mouse model described above.
APOE C57BL/6NTac-Apoeem7250 knock-in mice were divided into groups of 2-4 mice each. Each mouse received a single intracerebroventricular (ICV) bolus of 300 μg of modified oligonucleotide. A group of 2-4 mice received a single ICV bolus with PBS as a negative control.
Mice were sacrificed at various timepoints as indicated in the table below and RNA was extracted from cortical brain tissue and spinal cord for quantitative real-time RT-PCR analysis of RNA expression of APOE using primer probe set RTS3073 (described herein above). APOE RNA levels were normalized to mouse Ppia. Mouse Ppia was amplified using primer probe set m_cyclo24 (described herein above). Results are presented as percent human APOE RNA relative to the amount of human APOE RNA in PBS treated animals, (% control). Each experiment is identified in separate tables below.

human APOE RNA [2] = assay: Dose-dependent inhibition of human APOE RNA in HepG2 cells, electroporation, 50,000 cells per well, RT-PCR normalized to GAPDH (Example 4, Tables 8-10); type: cell-based; conditions: HepG2 cells, electroporation, Table 8; for APOE RNA (% UTC) 5 nM / APOE RNA (% UTC) 13 nM / APOE RNA (% UTC) 33 nM / APOE RNA (% UTC) 82 nM / APOE RNA (% UTC) 205 nM / APOE RNA (% UTC) 512 nM / IC50: 24-hour treatment; for APOE RNA (% UTC) 1,280 nM: 24-hour treatment, 1,280 nM; for APOE RNA (% UTC) 3,200 nM: 24-hour treatment, 3,200 nM; for APOE RNA (% UTC) 8,000 nM: 24-hour treatment, 8,000 nM; for APOE RNA (% UTC) 20,000 nM: 24-hour treatment, 20,000 nM; for IC50: reduction of human APOE RNA
Method in brief: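 Readout is percent APOE RNA versus untreated controls, measured by RT-PCR (primer probe set RTS3073) and normalized to human GAPDH. Modified oligonucleotides were delivered by electroporation at varying doses into HepG2 cells plated at 50,000 per well.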

human APOE RNA [3] = assay: Activity in APOE C57BL/6NTac-Apoeem7250 knock-in mice, single ICV bolus, 4 weeks (Example 10); type: in vivo; conditions: single ICV bolus 300 μg, 4 weeks post treatment, normalized to mouse Ppia
Method in brief: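 Human APOE RNA, quantified by real-time RT-PCR with RTS3073 and normalized to mouse Ppia, was read in cortical brain and spinal cord 4 weeks post dosing. Dosing was a single ICV bolus of 300 μg per knock-in mouse; values are % of PBS-treated animals.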

human APOE RNA [4] = assay: Activity in APOE C57BL/6NTac-Apoeem7250 knock-in mice, single ICV bolus, 8 weeks (Example 11); type: in vivo; conditions: single ICV bolus 300 μg, 8 weeks post treatment, normalized to mouse Ppia
Method in brief: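 Cortical and spinal cord human APOE RNA quantified by RT-qPCR 8 weeks after a single 300 μg ICV dose in knock-in mice, Ppia-normalized. Values are percent of levels in PBS-treated animals.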

human APOE RNA [5] = assay: Activity in APOE C57BL/6NTac-Apoeem7250 knock-in mice, single ICV bolus, 16 weeks (Example 12); type: in vivo; conditions: single ICV bolus 300 μg, 16 weeks post treatment, normalized to mouse Ppia
Method in brief: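 A single 300 μg intracerebroventricular dose was given, with PBS-treated mice as reference; cortical and spinal cord tissue was taken 16 weeks later. RT-qPCR quantified human APOE RNA, Ppia-normalized, expressed relative to PBS animals (% control).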

human APOE RNA [6] = assay: Activity in APOE C57BL/6NTac-Apoeem7250 knock-in mice, single ICV bolus, 20 weeks (Example 13); type: in vivo; conditions: single ICV bolus 300 μg, 20 weeks post treatment, normalized to mouse Ppia
Method in brief: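 Cortical and spinal cord RNA was assayed by real-time RT-PCR for human APOE, normalized to mouse Ppia and reported as percent of PBS controls. Tissue was taken twenty weeks after one 300 μg intracerebroventricular bolus in APOE knock-in mice, 4 per group.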

Substance | APOE RNA (% control) Cortex (human APOE RNA [1]; 14 days post-dose) [% control] | APOE RNA (% control) Cortex (human APOE RNA [1]; 112 days post-dose) [% control] | APOE RNA (% control) Spinal Cord (human APOE RNA [1]; 14 days post-dose) [% control] | APOE RNA (% control) Spinal Cord (human APOE RNA [1]; 112 days post-dose) [% control] | APOE RNA (% UTC) 5 nM (human APOE RNA [2]) [% UTC] | APOE RNA (% UTC) 13 nM (human APOE RNA [2]) [% UTC] | APOE RNA (% UTC) 33 nM (human APOE RNA [2]) [% UTC] | APOE RNA (% UTC) 82 nM (human APOE RNA [2]) [% UTC] | APOE RNA (% UTC) 205 nM (human APOE RNA [2]) [% UTC] | APOE RNA (% UTC) 512 nM (human APOE RNA [2]) [% UTC] | APOE RNA (% UTC) 1,280 nM (human APOE RNA [2]) [% UTC] | APOE RNA (% UTC) 3,200 nM (human APOE RNA [2]) [% UTC] | APOE RNA (% UTC) 8,000 nM (human APOE RNA [2]) [% UTC] | APOE RNA (% UTC) 20,000 nM (human APOE RNA [2]) [% UTC] | IC50 (human APOE RNA [2]) [nM] | APOE RNA (% control) Cortex (human APOE RNA [3]) [% control] | APOE RNA (% control) Spinal Cord (human APOE RNA [3]) [% control] | APOE RNA (% control) Cortex (human APOE RNA [4]) [% control] | APOE RNA (% control) Spinal Cord (human APOE RNA [4]) [% control] | APOE RNA (% control) Cortex (human APOE RNA [5]) [% control] | other results
1721307: 6-10-4 MOE gapmer CTTGGTGAATCTTTATTAAA, linkages s[pn][pn][pn]oossssssssssoss (e[5mC]*eT[PN]eT[PN]eG[PN]eGeTdG*dA*dA*dT*d[5mC]*dT*dT*dT*dA*dT*eTeA*eA*eA) [compound 1721307] | 38 | 73 | 31 | 34 |  |  |  |  |  |  |  |  |  |  |  |  |  |  |  |  | 
1721305: 6-10-4 MOE gapmer TTGGTGAATCTTTATTAAAC, linkages s[pn][pn][pn]oossssssssss[pn]ss (eT*eT[PN]eG[PN]eG[PN]eTeGdA*dA*dT*d[5mC]*dT*dT*dT*dA*dT*dT*eA[PN]eA*eA*e[5mC]) [compound 1721305] | 52 | 81 | 37 | 40 |  |  |  |  |  |  |  |  |  |  |  |  |  |  |  |  | 
1721309: 6-10-4 MOE gapmer CTTGGTGAATCTTTATTAAA, linkages s[pn][pn][pn]oossssssssss[pn]ss (e[5mC]*eT[PN]eT[PN]eG[PN]eGeTdG*dA*dA*dT*d[5mC]*dT*dT*dT*dA*dT*eT[PN]eA*eA*eA) [compound 1721309] | 45 | 93 | 34 | 39 |  |  |  |  |  |  |  |  |  |  |  |  |  |  |  |  | 
1778114: modified oligonucleotide complementary to human APOE RNA (eA*e[5mC]eTeTkG*kG*dT*dG[ms]dA[ms]dA*dT*d[5mC]*dT*dT*dT*dA[ms]eTeT*eA*eA; antisense) [compound 1778114] |  |  |  |  | 78 | 82 | 78 | 78 | 67 | 45 | 42 | 20 | 11 | 7 | 430 | 37 | 57 | 47 | 32 | 52 | APOE RNA (% control) Spinal Cord (human APOE RNA [5]): 27 % control; APOE RNA (% control) Cortex (human APOE RNA [6]): 56 % control; APOE RNA (% control) Spinal Cord (human APOE RNA [6]): 26 % control
1785604: modified oligonucleotide complementary to human APOE RNA (k[5mC]*dT[ms]dT[ms]kG*dG[ms]kT*dG[ms]dA[ms]dA*dT*d[5mC]*dT*dT*dT*dA*dT*kT*kA*dA[ms]kA; antisense) [compound 1785604] |  |  |  |  | 92 | 108 | 89 | 86 | 69 | 47 | 44 | 47 | 13 | 7 | 870 | 39 | 55 | 28 | 35 | 41 | APOE RNA (% control) Spinal Cord (human APOE RNA [5]): 27 % control; APOE RNA (% control) Cortex (human APOE RNA [6]): 55 % control; APOE RNA (% control) Spinal Cord (human APOE RNA [6]): 47 % control
1721306: 6-10-4 MOE gapmer TTGGTGAATCTTTATTAAAC, linkages s[pn][pn][pn]oosssssszzss[n]ss (as printed) (sugars from the 5' end e6 d10 e4, all C 5-methyl, backbone not given here; further chemistry not fully specified) [compound 1721306] | 58 | 89 | 63 | 60 |  |  |  |  |  |  |  |  |  |  |  |  |  |  |  |  | 
1721303: 6-10-4 MOE gapmer TTGGTGAATCTTTATTAAAC, linkages s[pn][pn][pn]oossssssssssoss (eT*eT[PN]eG[PN]eG[PN]eTeGdA*dA*dT*d[5mC]*dT*dT*dT*dA*dT*dT*eAeA*eA*e[5mC]) [compound 1721303] | 36 | 75 | 32 | 40 |  |  |  |  |  |  |  |  |  |  |  |  |  |  |  |  | 
1778127: modified oligonucleotide complementary to human APOE RNA (eA*e[5mC]eTeTkGkG*dT*dG[ms]dA[ms]dA*dT*d[5mC]*dT*dT*dT*dA[ms]kTeT[ms]eA[ms]eA; antisense) [compound 1778127] |  |  |  |  | 98 | 88 | 85 | 82 | 55 | 31 | 30 | 16 | 14 | 4 | 310 | 32 | 53 | 28 | 14 | 48 | APOE RNA (% control) Spinal Cord (human APOE RNA [5]): 25 % control; APOE RNA (% control) Cortex (human APOE RNA [6]): 57 % control; APOE RNA (% control) Spinal Cord (human APOE RNA [6]): 43 % control
1721310: 6-10-4 MOE gapmer CTTGGTGAATCTTTATTAAA, linkages s[pn][pn][pn]oossssssszzs[pn]ss (e[5mC]*eT[PN]eT[PN]eG[PN]eGeTdG*dA*dA*dT*d[5mC]*dT*dT*dT[ms]dA[ms]dT*eT[PN]eA*eA*eA) [compound 1721310] | 35 | 88 | 38 | 65 |  |  |  |  |  |  |  |  |  |  |  |  |  |  |  |  | 
1778129: modified oligonucleotide complementary to human APOE RNA (eA*e[5mC]eTeTeG*kG*dT*dG[ms]dA[ms]dA*dT*d[5mC]*dT*dT*dT*dA[ms]kT*kT*eA*eA; antisense) [compound 1778129] |  |  |  |  | 124 | 105 | 110 | 77 | 60 | 44 | 29 | 9 | 14 | 2 | 410 | 25 | 47 | 19 | 9 | 34 | APOE RNA (% control) Spinal Cord (human APOE RNA [5]): 14 % control; APOE RNA (% control) Cortex (human APOE RNA [6]): 52 % control; APOE RNA (% control) Spinal Cord (human APOE RNA [6]): 24 % control

Source: patent US20250353873A1, “COMPOUNDS AND METHODS FOR MODULATING APOE EXPRESSION” (Ionis Pharmaceuticals, Inc., priority 2024, published 2025)
